Laboratory results reported in patent US11510993B2, “Antibody drug conjugate for anti-inflammatory applications” (Merck Sharp & Dohme Corp., priority 2015, dated 2022).

Key:
[1] = Solubility of drug-linkers in 20% MeCN/H2O; format: physicochemical; details: tested at a concentration of 10 mg/mL
Experimental: The solubility of exemplary drug-linker conjugates in aqueous solutions was evaluated. Linkers utilized in drug conjugates may have aqueous solubility to enable conjugation in aqueous media amenable to protein solubilization. Furthermore, linkers with aqueous solubility are considered hydrophilic, and may confer to the drug conjugate a reduced propensity to aggregate relative to standard hydrophobic linkers in the literature. The following exemplary drug-linkers were tested in an aqueous solution comprising 20% acetonitrile (MeCN/H2O) for solubility at a concentration of 10 mg/mL.

[2] = In vitro stability of drug-linkers in human whole blood (parent and released dexamethasone, LC-MS/MS); details: 37° C.
Experimental: General Experimental Procedure Human Blood Incubation Human blood was collected the morning of the experiment from at least 3 individuals using K2EDTA as the anticoagulant. An equal volume from each individual was combined for use in the experiment. The experiment started no more than 2 hours after the blood collection. All drug-linker conjugates were solubilized in DMSO to form each 10 mM stock solution. Dosing solution for each linker was prepared by serial dilution of each stock solution using 1:3 acetonitrile:water. All solutions were kept on ice during the experiment.
Human blood was pre-warmed in a 37° C. water bath in an appropriate volume to collect samples over a time course from 0 through 6 hours. Incubating blood was mixed well just prior to sampling to give a homogenous mixture. Aliquots of blood were removed at appropriate time points, added to cold stopping solution, which was methanol containing an appropriate internal standard, and mixed rigorously. The samples were centrifuged at 4000 RPM for 10 minutes after which equal volumes of the supernatant fractions were diluted with cold deionized water. The samples were then ready for analysis.
(§1) A Thermo LX-2 ultra-performance liquid chromatography system coupled with a Sciex API5000 triple quadrupole mass spectrometer was used for the analysis. The payload and drug-linkers were retained and separated by a C18 column and detected by the mass spectrometer. […] Samples were kept in cold stack set at 5° C.

[3] = In vitro stability of drug-linkers in rat liver lysosomal lysate (parent and released dexamethasone, LC-MS/MS)
Experimental: Rat Liver lysosomes were available commercially with a pool of 6 animals. All linker compounds were solubilized in DMSO to form each 10 mM stock solution. Dosing solution for each linker was prepared by serial dilution of each stock solution using 1:3 acetonitrile: water. All solutions were kept on ice during the experiment.
Rat lysosomes were pre-warmed in a 37° C. water bath in an appropriate volume to collect samples over a time course from 0 minutes through 6 hours. Incubating lysosomes were mixed well just prior to sampling to give a homogenous mixture. Aliquots of lysosomes were removed at appropriate time points, added to cold stopping solution, which was methanol containing an appropriate internal standard, and mixed rigorously. The samples were centrifuged at 4000 RPM for 10 minutes after which equal volumes of supernatant were diluted with cold deionized water. The samples were ready for analysis.
as §1

SMILES: C[C@@H]1C[C@H]2[C@@H]3CCC4=CC(=O)C=C[C@]4(C)[C@@]3(F)[C@@H](O)C[C@]2(C)[C@@]1(O)C(=O)COP(=O)(O)Oc1ccc(NC(=O)COC2C#CCCCCC2)cc1 (stereo partly drawn) [Drug Linker 5-3, 4-(2-(cyclooct-2-yn-1-yloxy)acetamido)phenyl (2-((8S,9R,10S,11S,13S,14S,16R,17R)-9-fluoro-11,17-dihydroxy-10,13,16-trimethyl-3-oxo-6,7,8,9,10,11,12,13,14,15,16,17-dodecahydro-3H-cyclopenta[a]phenanthren-17-yl)-2-oxoethyl) hydrogen phosphate]
- Measured Solubility in 20% MeCN/H2O [1]: >10000 µg/mL
- Calculated Conc. for each compound in human whole blood ([2]; 0 m): 1299 nM
- Calculated Conc. for each compound in human whole blood ([2]; 5 m): 1251 nM
- Calculated Conc. for each compound in human whole blood ([2]; 15 m): 1276 nM
- Calculated Conc. for each compound in human whole blood ([2]; 30 m): 1111 nM
- Calculated Conc. for each compound in human whole blood ([2]; 1 hr): 937 nM
- Calculated Conc. for each compound in human whole blood ([2]; 2 hr): 1480 nM
- Calculated Conc. for each compound in rat lysomal lysate ([3]; 0 m, 37° C.): 1394.08 nM
- Calculated Conc. for each compound in rat lysomal lysate ([3]; 5 m, 37° C.): 1295.86 nM
- Calculated Conc. for each compound in rat lysomal lysate ([3]; 10 m, 37° C.): 1278.4 nM
- Calculated Conc. for each compound in rat lysomal lysate ([3]; 15 m, 37° C.): 1407.73 nM
- Calculated Conc. for each compound in rat lysomal lysate ([3]; 30 m, 37° C.): 1175.39 nM
- Calculated Conc. for each compound in rat lysomal lysate ([3]; 1 hr, 37° C.): 970.65 nM
- Calculated Conc. for each compound in rat lysomal lysate ([3]; 2 hr, 37° C.): 743.45 nM
- Calculated Conc. for each compound in rat lysomal lysate ([3]; 3 hr, 37° C.): 500.41 nM
- Calculated Conc. for each compound in rat lysomal lysate ([3]; 6 hr, 37° C.): 221.03 nM
- Calculated Conc. for each compound in rat lysomal lysate ([3]; Matrix spiking (lysosomes pretreated with stopping reagent)): 2555.29 nM
- rate of dexamethasone release in rat lysosomal extract (in words) ([3]; compared with 3-4, 5-3 releasing faster than 4-3): more slowly released
